How the values were obtained:
Assay type in all cases: in vivo, A/J mice
Kras Q61L = experiment: Droplet digital PCR of Kras Q61L in lungs of mice after urethane exposure; conditions: 4 weeks post urethane exposure
Experimental: (§1) Urethane treatment. 6-8-week-old male and female A/J mice (JAX Stock #000646) were intraperitoneally injected daily for three days with either urethane (Sigma U2500) dissolved in PBS (1 g·kg^−1) or the vehicle PBS alone. Mice were humanely euthanized 1, 2, 3, or 4 weeks after the last injection and the lung, liver, and pancreas collected for the extraction of genomic DNA. All mouse care and experiments were performed in accordance with protocols approved by the IACUC of Duke University.
Droplet digital PCR (ddPCR). ddPCR was performed using the QX200 AutoDG Droplet Digital PCR System (Bio-Rad) following the manufacturer's protocol in a 22 μl ddPCR reaction containing 11 μl of 2×ddPCR SuperMix for probes (no dUTP) (Bio-Rad), 66 ng template DNA, 450 nM forward and reverse primers, and 250 nM FAM- and HEX-labelled probes. The primer and probe oligonucleotides were synthesized (IDT) based on sequences previously described^76 with minor modifications. The sequences for the primers are: Kras_Q61_For: 5′-[…]-3′ (SEQ ID NO: 205); and Kras_Q61_Rev: 5′-[…]-3′ (SEQ ID NO: 206). […] Plates were read on a QX200 droplet reader (Bio-Rad) and analyzed with QuantaSoft™ Analysis Pro software (version 1.0.596) (Bio-Rad) to assess the number of droplets positive for mutant DNA, wild-type DNA, both, or neither. […]

exon 2 of Kras = experiment: Maximum depth sequencing (MDS) of Kras exon 2 from tissues of mice after urethane exposure
Experimental: as §1
(§2) Isolation of genomic DNA. MEF cells were resuspended in lysis buffer (100 mM NaCl, 10 mM Tris pH 7.6, 25 mM EDTA pH 8.0, and 0.5% SDS in H2O, supplemented with 20 μg·ml^−1 RNase A (Sigma)). Lung, pancreas, and liver (right lobe) from A/J mice (JAX Stock #000646) were cut into fine pieces and similarly resuspended in lysis buffer. Samples were incubated at 37° C. for 1 hour. 2 μl of 800 U·ml^−1 proteinase K (NEB) was then added to each sample, the samples were vortexed, and then incubated at 55° C. overnight. Genomic DNA was isolated by phenol/chloroform extraction followed by ethanol precipitation using standard procedures and quantified using Qubit fluorometer.
Maximum depth sequencing (MDS). The MDS assay^13 was adapted for mammalian Ras genes as follows. 20-50 μg of genomic DNA was incubated with StuI (NEB) for analysis of the transcribed strand of Kras exon 1, EcoRV (NEB) and EcoRI (NEB) for analysis of the non-transcribed strand of Kras exon 1, XmnI (NEB) for analysis of the non-transcribed strand of Kras exon 2, and PleI (NEB) for analysis of the transcribed strand of Kras exon 2, or HphI (NEB) for the analysis of the non-transcribed strand of Hras exon 2. Reaction conditions were 5 units of the indicated restriction enzyme and per 1 μg DNA per 20 μl reaction (e.g., 20 μg genomic DNA, 5 μl enzyme (20 units/μl), and 40 μl 10×buffer in 400 μl reaction). Digested genomic DNA was column purified using QIAquick PCR Purification Kit following the manufacturer's protocol (Qiagen) and resuspended in ddH2O (35 μl H2O per 10 μg DNA). The barcode and adaptor were added to the target DNA by incubating purified DNA with the appropriate barcode primer (see below) for one cycle of PCR. PCR reactions were comprised of 10 μg DNA, 2.5 μl of 10 μM barcode primer, 4 μl of 2.5 mM dNTP, 10 μl of 5×buffer (NEB), and 0.5 μl Q5® Hot Start High-Fidelity DNA Polymerase (NEB) in a total volume of 50 μl. The number of PCR reactions was scaled according to the amount of DNA. PCR conditions were 98° C. for 1 minute, barcode primer annealing temperate (see below) for 15 seconds, and 72° C. for 1 minute. […] The concentration of purified product was measured with SimpliNano spectrophotometer (GE Healthcare Life Sciences). […]

exon 2 of Hras = experiment: MDS of Hras exon 2 from lungs of mice after urethane exposure
Experimental: as §1, §2
(§3) Maximum depth sequencing (MDS). The MDS assay^13 was adapted for mammalian Ras genes as follows. […] The concentration of purified product was measured with SimpliNano spectrophotometer (GE Healthcare Life Sciences). […]

exon 1 of Kras = experiment: MDS of Kras exon 1 from lungs of mice after urethane exposure
Experimental: as §1, §2, §3

CCOC(N)=O [urethane, ethyl carbamate]
Q61L mutation frequency by droplet digital PCR (Kras Q61L): frequency similar to that determined by MDS
strand bias of mutagenesis (exon 2 of Kras; lung, both strands sequenced in two exons of Kras): bias for the non-transcribed strand
most prominent substitution detected by MDS (exon 2 of Kras; lungs, Kras exon 2, all time points, urethane but not PBS): A>T transversion within the context of a 5′ C and 3′ any nucleotide
oncogenic mutation at codon Q61 of Kras detected by MDS (exon 2 of Kras; lungs, non-transcribed strand of exon 2, 1-4 weeks after three daily i.p. injections, vs PBS): oncogenic L (and to a lesser extent R) mutation at codon Q61 preferentially in the urethane, but not PBS cohort of mice, as early as 1 week after exposure
CAN→CTN transversions in liver and pancreas in comparison with the lung (exon 2 of Kras; non-transcribed strand of exon 2 of Kras, 1 and 4 weeks after urethane exposure): significantly fewer CAN→CTN transversions were recovered in the liver and pancreas
expansion of oncogenic mutations in Hras over time (exon 2 of Hras; 4 weeks vs 1 week): did not expand appreciably over time
mutations in exon 2 of Hras (exon 2 of Hras; non-transcribed strand, 1 and 4 weeks after exposure): high prevalence of A>T followed by A>G mutations
oncogenic mutations in codon 12 or 13 of Kras (exon 1 of Kras; 1 week after urethane exposure): oncogenic mutations were rarely recovered in either codon 12 or 13
oncogenic mutations in codon 12 or 13 of Kras (exon 1 of Kras; 4 weeks after urethane exposure): some G12 and G13 mutations were detected at a low frequency

Reference: US20240141440A1, “METHODS FOR DETECTING ONCOGENIC KRAS MUTATIONS” (Duke University, priority 2022, published 2024)
